Structures are written as SMILES.

Results on 20 compounds are retold here after patent US12084472B2 (Ardelyx, Inc., priority 2015, dated 2024).

The experiment addresses T1, human TGR5 (Homo sapiens, UniProt Q8TDU6).
T1 construct: expressed in transfected cells; host or cells: HEK293
T1 sequence (Q8TDU6 1-330): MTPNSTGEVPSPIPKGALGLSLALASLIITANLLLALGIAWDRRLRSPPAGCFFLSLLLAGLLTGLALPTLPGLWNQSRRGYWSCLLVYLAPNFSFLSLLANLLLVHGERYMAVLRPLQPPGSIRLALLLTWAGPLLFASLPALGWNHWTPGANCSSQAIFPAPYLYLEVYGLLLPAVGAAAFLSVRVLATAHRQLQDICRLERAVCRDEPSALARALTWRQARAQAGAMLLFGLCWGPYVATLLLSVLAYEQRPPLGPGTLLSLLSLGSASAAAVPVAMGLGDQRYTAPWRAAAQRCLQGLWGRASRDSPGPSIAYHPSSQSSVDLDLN
Put plainly: Cell-based TGR5 assay (cAMP generation, HTRF). To be noted: HEK293 cells stably transfected with human TGR5; cAMP by HTRF; 30 minutes at 37° C.; read-out: pEC50 Human TGR5 (converted). In short, it runs like this: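 First, compounds in 3-fold serial dilution were placed in HBSS with 10 mM HEPES pH 7.4 and 0.5 mM IBMX. Next, human TGR5-expressing HEK293 cells were added and incubated 30 min at 37° C. Finally, cAMP was detected by HTRF and pEC50 derived by logistic fitting.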
A general note: In TR-FRET formats the signal depends on donor and acceptor labels being close together.
In the case of `CN(CCCCNC(=O)NC[C@H](O)[C@@H](O)[C@H](O)[C@H](O)CO)S(=O)(=O)c1ccc(C(F)(F)F)c(COC2(c3cnccc3-c3ccccc3OC3CC3)CC2)c1` [Compound I-469, 1-{4-[N-methyl3-({1-[4-(2-cyclopropoxyphenyl)pyridin-3-yl]cyclopropoxy}methyl)-4-(trifluoromethyl)benzenesulfonamido]butyl}-3-[(2S,3R,4R,5R)-2,3,4,5,6-pentahydroxyhexyl]urea], the EC50 was under 100 nM.
Take `CN(CCCCNC(=O)N[C@@H](CO)[C@@H](O)[C@H](O)[C@H](O)CO)S(=O)(=O)c1ccc(C(F)(F)F)c(CNC2(c3cnccc3-c3ccccc3OC3CC3)CC2)c1` [Compound I-470, 1-(4-{N-methyl3-[({1-[4-(2-cyclopropoxyphenyl)pyridin-3-yl]cyclopropyl}amino)methyl]-4-(trifluoromethyl)benzenesulfonamido}butyl)-3-[(2S,3R,4S,5R)-1,3,4,5,6-pentahydroxyhexan-2-yl]urea]: the EC50 is 126 to 1000 nM.
In the case of `CN(CCCCNC(=O)NC[C@H](O)[C@@H](O)[C@H](O)[C@H](O)CO)S(=O)(=O)c1ccc(Cl)c(CNC2(c3cnccc3-c3ccccc3OC3CC3)CC2)c1` [Compound I-471, 1-(4-{N-methyl4-chloro-3-[({1-[4-(2-cyclopropoxyphenyl)pyridin-3-yl]cyclopropyl}amino)methyl]benzenesulfonamido}butyl)-3-[(2S,3R,4R,5R)-2,3,4,5,6-pentahydroxyhexyl]urea] it was under 100 nM.
In the case of `CN(CCCCNC(=O)N[C@@H](CO)[C@@H](O)[C@H](O)[C@H](O)CO)S(=O)(=O)c1ccc(Cl)c(CNC2(c3cnccc3-c3ccccc3OC3CC3)CC2)c1` [Compound I-472, 1-(4-{N-methyl4-chloro-3-[({1-[4-(2-cyclopropoxyphenyl)pyridin-3-yl]cyclopropyl}amino)methyl]benzenesulfonamido}butyl)-3-[(2S,3R,4S,5R)-1,3,4,5,6-pentahydroxyhexan-2-yl]urea] it was under 100 nM.
For the compound `CCN(CCCCNC(=O)NC[C@H](O)[C@@H](O)[C@H](O)[C@H](O)CO)S(=O)(=O)c1ccc(Cl)c(CNC2(c3cnccc3-c3ccccc3OC3CC3)CC2)c1` [Compound I-473, 1-(4-{N-ethyl4-chloro-3-[({1-[4-(2-cyclopropoxyphenyl)pyridin-3-yl]cyclopropyl}amino)methyl]benzenesulfonamido}butyl)-3-[(2S,3R,4R,5R)-2,3,4,5,6-pentahydroxyhexyl]urea], the EC50 is under 100 nM.
In the case of `CN(CCCCNC(=O)NC[C@H](O)[C@@H](O)[C@H](O)[C@H](O)CO)S(=O)(=O)c1cc(CNC2(c3cnccc3-c3ccccc3OC3CC3)CC2)c(Cl)cc1F` [Compound I-474, 1-(4-{N-methyl4-chloro-5-[({1-[4-(2-cyclopropoxyphenyl)pyridin-3-yl]cyclopropyl}amino)methyl]-2-fluorobenzenesulfonamido}butyl)-3-[(2S,3R,4R,5R)-2,3,4,5,6-pentahydroxyhexyl]urea] it was under 100 nM; in that of `CN(CCCCNC(=O)N[C@@H](CO)[C@@H](O)[C@H](O)[C@H](O)CO)S(=O)(=O)c1cc(CNC2(c3cnccc3-c3ccccc3OC3CC3)CC2)c(Cl)cc1F` [Compound I-475, 1-(4-{N-methyl4-chloro-5-[({1-[4-(2-cyclopropoxyphenyl)pyridin-3-yl]cyclopropyl}amino)methyl]-2-fluorobenzenesulfonamido}butyl)-3-[(2S,3R,4S,5R)-1,3,4,5,6-pentahydroxyhexan-2-yl]urea], under 100 nM.
With `CN(CCCCNC(=O)N[C@@H](CO)[C@@H](O)[C@H](O)[C@H](O)CO)S(=O)(=O)c1cc(CNC2(c3cnccc3-c3ccccc3OC3CC3)CC2)c(Cl)cc1Cl` [Compound I-476, 1-(4-{N-methyl2,4-dichloro-5-[({1-[4-(2-cyclopropoxyphenyl)pyridin-3-yl]cyclopropyl}amino)methyl]benzenesulfonamido}butyl)-3-[(2S,3R,4S,5R)-1,3,4,5,6-pentahydroxyhexan-2-yl]urea], the EC50 is 126 to 1000 nM.
In the case of `Cc1ccc(S(=O)(=O)N(C)CCCCNC(=O)NC[C@H](O)[C@@H](O)[C@H](O)[C@H](O)CO)cc1CNC1(c2cnccc2-c2ccccc2OC2CC2)CC1` [Compound I-477, 1-(4-{N-methyl3-[({1-[4-(2-cyclopropoxyphenyl)pyridin-3-yl]cyclopropyl}amino)methyl]-4-methylbenzenesulfonamido}butyl)-3-[(2S,3R,4R,5R)-2,3,4,5,6-pentahydroxyhexyl]urea] it was under 100 nM.
As for `Cc1ccc(S(=O)(=O)N(C)CCCCNC(=O)N[C@@H](CO)[C@@H](O)[C@H](O)[C@H](O)CO)cc1CNC1(c2cnccc2-c2ccccc2OC2CC2)CC1` [Compound I-478, 1-(4-{N-methyl3-[({1-[4-(2-cyclopropoxyphenyl)pyridin-3-yl]cyclopropyl}amino)methyl]-4-methylbenzenesulfonamido}butyl)-3-[(2S,3R,4S,5R)-1,3,4,5,6-pentahydroxyhexan-2-yl]urea], the figure is under 100 nM; as for `Cc1ccc(S(=O)(=O)N(C)CCCCNC(=O)NC[C@H](O)[C@@H](O)[C@H](O)[C@H](O)CO)cc1COC1(c2cnccc2-c2ccccc2OC2CC2)CC1` [Compound I-479, 1-{4-[N-methyl3-({1-[4-(2-cyclopropoxyphenyl)pyridin-3-yl]cyclopropoxy}methyl)-4-methylbenzenesulfonamido]butyl}-3-[(2S,3R,4R,5R)-2,3,4,5,6-pentahydroxyhexyl]urea], under 100 nM.
Consider `O=C(NCC(O)C(O)C(O)C(O)CO)N[C@@H](CCCNS(=O)(=O)c1ccc(Cl)c(COC2(c3cnccc3-c3ccccc3OC3CC3)CC2)c1)C(=O)O` (stereo partly drawn) [Compound I-480, (2S)-5-[4-chloro-3-({1-[4-(2-cyclopropoxyphenyl)pyridin-3-yl]cyclopropoxy}methyl)benzenesulfonamido]-2-{[(2,3,4,5,6-pentahydroxyhexyl)carbamoyl]amino}pentanoic acid], for which the EC50 is under 100 nM.
In the case of `CCNC(=O)[C@H](N)CCCCNS(=O)(=O)c1ccc(Cl)c(COC2(c3cnccc3-c3ccccc3OC3CC3)CC2)c1` [Compound I-481, (2R)-2-amino-6-[4-chloro-3-({1-[4-(2-cyclopropoxyphenyl)pyridin-3-yl]cyclopropoxy}methyl)benzenesulfonamido]-N-ethylhexanamide], the EC50 is under 100 nM.
As for `CCNC(=O)[C@@H](CCCCNS(=O)(=O)c1ccc(Cl)c(COC2(c3cnccc3-c3ccccc3OC3CC3)CC2)c1)NC(=O)NC[C@H](O)[C@@H](O)[C@H](O)[C@H](O)CO` [Compound I-482, (2R)-6-[4-chloro-3-({1-[4-(2-cyclopropoxyphenyl)pyridin-3-yl]cyclopropoxy}methyl)benzenesulfonamido]-N-ethyl-2-({[(2S,3R,4R,5R)-2,3,4,5,6-pentahydroxyhexyl]carbamoyl}amino)hexanamide], the figure is 126 to 1000 nM.
In the case of `O=C(NCCCC[C@H](NS(=O)(=O)c1ccc(Cl)c(COC2(c3cnccc3-c3ccccc3OC3CC3)CC2)c1)C(=O)O)NC[C@H](O)[C@@H](O)[C@H](O)[C@H](O)CO` [Compound I-483, (2S)-2-[4-chloro-3-({1-[4-(2-cyclopropoxyphenyl)pyridin-3-yl]cyclopropoxy}methyl)benzenesulfonamido]-6-({[(2S,3R,4R,5R)-2,3,4,5,6-pentahydroxyhexyl]carbamoyl}amino)hexanoic acid] it was 126 to 1000 nM; in that of `N[C@@H](CCCCNS(=O)(=O)c1ccc(COC2(c3cnccc3-c3ccccc3OC3CC3)CC2)c(Cl)c1)C(=O)O` [Compound I-484, (S)-2-amino-6-(3-chloro-4-((1-(4-(2-cyclopropoxyphenyl)pyridine-3-yl)cyclopropoxy)methyl)phenylsulfonamido)hexanoic acid], under 100 nM.
As for `O=C(NC[C@H](O)[C@@H](O)[C@H](O)[C@H](O)CO)N[C@@H](CCCCNS(=O)(=O)c1ccc(COC2(c3cnccc3-c3ccccc3OC3CC3)CC2)c(Cl)c1)C(=O)O` [Compound I-485, (S)-6-(3-chloro-4-((1-(4-(2-cyclopropoxyphenyl)pyridine-3-yl)cyclopropoxy)methyl)phenylsulfonamido)-2-(3-((2S,3R,4R,5R)-2,3,4,5,6-pentahydroxyhexyl)ureido) hexanoic acid], the figure is under 100 nM; as for `CCNC(=O)[C@@H](N)CCCCNS(=O)(=O)c1ccc(COC2(c3cnccc3-c3ccccc3OC3CC3)CC2)c(Cl)c1` [Compound I-486, (S)-2-amino-6-(3-chloro-4-((1-(4-(2-cyclopropoxyphenyl)pyridin-3-yl)cyclopropoxy)methyl)phenylsulfonamido)-N-ethylhexanamide], 126 to 1000 nM; as for `CCNC(=O)[C@H](CCCCNS(=O)(=O)c1ccc(Cl)c(COC2(c3cnccc3-c3ccccc3OC3CC3)CC2)c1)NC(=O)NC[C@H](O)[C@@H](O)[C@H](O)[C@H](O)CO` [Compound I-487], 126 to 1000 nM.
Turning to `O=C(NCCCCCSc1ccc(Cl)c(COC2(c3cnccc3-c3ccccc3OC3CC3)CC2)c1)NC[C@H](O)[C@@H](O)[C@H](O)[C@H](O)CO` [Compound I-488, 1-(5-[[4-Chloro-3-([1-[4-(2-cyclopropoxyphenyl)pyridin-3-yl]cyclopropoxy]methyl)phenyl]sulfanyl]pentyl)-3-[(2S,3R,4R,5R)-2,3,4,5,6-pentahydroxyhexyl]urea], the EC50 is under 100 nM.
